Series [1] relates to G12V or G12D KRAS cell lines. As to the kind of experiment: Lipid add-back cell viability experiment. Particulars: 200 μM oleic acid or 20 μM stearic acid supplemented medium, FIGS. 5G and 19. The format is cell-based. How it is done:
(§1) The cells were seeded in triplicates in 96-well plates at a density of 5,000-10,000 cells per well and treated with the indicated concentrations of ELOVL6 inhibitor. Assay plates were subjected to daily media exchange with fresh ELOVL6 inhibitor. Following treatment, cell viability was assessed after a period of 1-week treatment using the CellTiter-Glo Luminescent Cell Viability Assay (Promega, #G7571) with luminescence readings taken on a Cytation™ 3 cell imaging multi-mode reader (Fisher Scientific). The background value was indicated by cell medium without cells and was subtracted from the raw data. The fold change in cell viability was determined relative to control cells that received no treatment.
For the lipid-addback experiment, cells were treated with the indicated concentrations of ELOVL6 inhibitor in 200 μM of oleic acid (Sigma, #O1383-1G) or 20 μM of stearic acid (Sigma, #S4751-1G) supplemented medium.

The subject of another series is mCherry-G12V KRAS. As to the kind of experiment: Live-cell imaging of mCherry-KRAS and plasma membrane co-localization. The series is classed as cell-based, human. To be noted: 40 μM, FIGS. 2H-2K. Here is the method: HT29 and SW480 cells were transduced with mCherry-WT-KRAS (Addgene, #153335) or mCherry-G12V-KRAS (Addgene, #153336) plasmid for stable mCherry-KRAS expression. Cells were seeded onto 35 mm glass bottom dish (Fisher Scientific, #NC0794151). ELOVL6 inhibitor was added at 40 μM prior to imaging. Cells were stained with CellBrite™ Steady 488 membrane dye (Biotium, #30106 T) for 30 minutes. Live cells were imaged using Nikon W1 dual cam spinning disk confocal with TIRF and a 100× objective. Five random fields of view (FOV) were selected, and an image/FOV was taken every 15 minutes for a duration of 20 hours. Images were analyzed by Fiji Image J. The mean fluorescence intensity of mCherry-KRAS was normalized to the time zero measurement of each FOV to generate relative mCherry-KRAS expression across the experiment's timespan. The Pearson's coefficient plugin JACop from ImageJ was used for quantification co-localization between mCherry-KRAS and cell membrane dye.

Series [2] deals with human cell lines harboring KRAS mutations (colorectal, lung, pancreatic cancers). Put plainly: Cell viability assay (CellTiter-Glo, 7-day ELOVL6i treatment) across a cell line panel. The format is cell-based. How it is done:
as §1
For orientation: In ATP-based viability assays light output follows the ATP content of the culture.

The next series deals with G12V KRAS in SW480 cells. Put plainly: KRAS protein expression after ELOVL6i treatment at different concentrations (immunoblot). The format is cell-based, human. To be noted: FIG. 2G. How it is done: Whole-cell extracts were prepared using RIPA buffer (Sigma, #R0278) supplemented with protease and phosphatase inhibitor cocktail (Thermo Fisher Scientific, #78442) on ice for 20 minutes. Subsequently, the lysates were centrifuged at 10,000 g for 20 minutes, and the protein concentration was determined using the BCA assay (Thermo Fisher Scientific, #A55864). The proteins were separated on 4-15% precast protein gels (Bio-Rad, #4568084) in 1×-Tris-Glycine-SDS buffer (Bio-Rad, #1610772) at a constant voltage of 100V and transferred onto nitrocellulose membrane (Bio-Rad, #1620115) using 1× Tris-Glycine Buffer (Bio-Rad, 1610734) at 100V for 1 hour. Following transfer, membrane was blocked in 5% skim milk for 1 hour, then incubated at 4° C. with primary antibodies. Detection was performed using horseradish peroxidase (HRP)-conjugated secondary antibodies. Blots were visualized with chemiluminescent substrate (Thermo Fisher Scientific, #34580) using Azure imaging system. Immunoblots were quantified using ImageJ.
(In western blotting, separated proteins are transferred to a membrane and probed.)

The test system of series [3] is mCherry-G12V KRAS expressing HT29 cells. As to the kind of experiment: mCherry-tagged G12V KRAS protein level after ELOVL6i treatment. To be noted: FIGS. 11A and 11B. The format is cell-based, human. How it is done: To label intracellular markers, live cells were fixed with 4% paraformaldehyde (Fisher Scientific, #AA47377-9M) for 20 minutes, washed with PBS, permeabilized with 0.2% Triton X-100 (Sigma, X100-100ML) for 10 minutes, blocked with PBS with 2% BSA (flow buffer) for 30 minutes then stained with the antibodies prepared in flow buffer. Cells were incubated with primary antibodies for 1-hour at room temperature. Primary antibodies used were: anti-KRAS (Proteintech, #12063-1-AP), anti-phospho-ERK (Thr202/Tyr204) (Cell Signaling Technology, #4370S), and anti-ERK (Cell Signaling Technology, #4695S). After wash with flow buffer, cells were incubated with secondary antibodies for 30 minutes. […] Stained samples and the isotype control were analyzed immediately by flow cytometers. Data were analyzed using the FlowJo software. MFI was defined as median fluorescence across the cell population.
HT29 and SW480 cells were transduced with mCherry-WT-KRAS (Addgene, #153335) or mCherry-G12V-KRAS (Addgene, #153336) plasmid for stable mCherry-KRAS expression. […] Images were analyzed by Fiji Image J. The mean fluorescence intensity of mCherry-KRAS was normalized to the time zero measurement of each FOV to generate relative mCherry-KRAS expression across the experiment's timespan. […]

The subject of series [4] is GTP-bound KRAS in G12V KRAS expressing HEK293 cells. As to the kind of experiment: RAS activation assay (active-KRAS pull-down) in HEK293 cells. The series is classed as cell-based, human. To be noted: 40 μM for 3 days, FIG. 3D. Here is the method: (§2) Cells were treated with 40 μM of ELOVL6 inhibitor ELOVL6-IN-2 (MCE, HY-12146) for 3days and collected for protein extraction. RAS activity was assessed utilizing the active Ras pull-down and detection kit (Thermo Fisher Scientific, #16117). In brief, GST-RAF1 RBD and glutathione agarose resin were combined with whole-cell lysates and incubated on a rotator for 1 hour at 4° C. This was followed by three washes and elution with 2× SDS-PAGE loading buffer. The eluted samples were then subjected to western blotting to detect GTP-RAS.

The next series concerns SW403 xenograft. As to the kind of experiment: SW403 G12V KRAS mutant xenograft study. The format is in vivo. How it is done:
To establish cell-line-derived xenograft models, 5 million cells (SW403 and NCI-H441) suspended in PBS were subcutaneously injected to the right flanks of 8-week-old female athymic nude (nu/nu) mice purchased from the Jackson Laboratory. Once tumor reached approximately 50 mm3 volume, mice were randomized into groups (n=10) and treated with vehicle control (corn oil) or ELOVL6 inhibitor (dissolved in corn oil) dosed at 300 mg/kg. Treatment was administered twice daily by oral gavage. Tumor growth was measured 2-3 times per week using a caliper. Tumors were collected at the indicated timepoint and at the endpoint for analysis. For KRAS downstream signaling analysis, tumors were dissociated into single cells for flow cytometry analysis and protein was extract for western blotting.
Tumor specimens were fixed in 10% formalin for at least 24 hours. Then washed with PBS and stored in 70% ethanol until paraffin embedding. Slides were stained using Dako Autostainer Plus. The following antibodies were used for staining: KRAS (Proteintech, #12063-1-AP), Ki-67 (Abcam, Ab15580), phospho-ERK (Cell Signaling Technology, #4370S), and ERK (Cell Signaling Technology, #4695s). Slides were then incubated with HRP labelled polymer anti-rabbit antibody (Agilent, K4003). All slides were […] through xylene and alcohol, them mounted, and cover slipped. Slides were scanned at 20× using a Nano Zoomer 2.0 HT (Hamamatsu Photonics).

The test system of series [5] is cellular lipid composition (ELOVL6 fatty acid elongation). As to the kind of experiment: Lipidomic analysis (targeted fatty acids and shotgun lipidomics) of ELOVL6i treated cells. The format is cell-based. Particulars: 40 μM for 1-week. Here is the method:
Cells were treated with ELOVL6 inhibitor at 40 μM for 1-week. Cell pellets were stored at −80° C. until sent for lipidomic analysis. Mass spectrometry-based shotgun untargeted lipid analysis and targeted fatty acids analysis were conducted by Lipotype (Dresden, Germany). Lipids were extracted using chloroform and methanol procedure as previously described (38). Samples were analyzed by automated direct infusion and orbitrap mass spectrometry. LipotypeXplorer was used for identification of lipids in the raw mass spectra (39). Alterations in lipid composition were determined based on mol % of total lipid normalized to untreated control samples.

The test system of series [6] is GTP-bound KRAS in cancer cell lines harboring G12V or G12D KRAS. Put plainly: RAS activation assay (active-KRAS pull-down) in mutant KRAS cancer cell lines. The series is classed as cell-based, human. To be noted: multiple cancer cell lines harboring G12V or G12D KRAS, 40 μM for 3 days, FIGS. 3E-3G. How it is done:
as §2

Where [7] appears, read: targeted lipidomic analysis, versus vehicle-treated controls, FIGS. 5A and 16.

For `Cc1[nH]n(-c2ccc(OC(F)(F)F)cc2)c(=O)c1C1(C(F)(F)F)C(=O)N(c2ccccc2)C2=C1C(=O)CC(C)(C)C2` (centres unmarked) [ELOVL6i], the “cell viability with exogenous oleic acid or stearic acid supplementation during ELOVL6i treatment” value in [1] is “enhanced cell viability”. Also, in the series on mCherry-G12V KRAS, the “mCherry-G12V KRAS co-localization with cell membrane” value is “Significant reductions” and the “mCherry-G12V KRAS fluorescence intensity” value is reported as “Significant reductions”. The “sensitivity of mutant KRAS-expressing cells versus WT KRAS expressing cells” value in series [2] (7-day treatment, FIGS. 4G-4I and 14) is given as “more sensitive”. The “cell viability across KRAS variants” value in series [2] (G12V, G12D, G13D, G12C, G12R, Q61X, A146T cell lines, 7-day treatment, FIG. 4F) is given as “impacted cell viability across all KRAS variants tested”. For the same molecule, the “sensitivity of pancreatic cancer cell lines (antiproliferative effect)” value in series [2] (panel of human KRAS mutant cell lines) is on record as “especially sensitive”. Also, the “effect on G12V KRAS protein level” value with G12V KRAS in SW480 cells is given as “concentration-dependent effect”. Besides, in series [3], the “lowering of mCherry-G12V KRAS” value is recorded as “dose-dependent effects”. Also, the “GTP-bound KRAS” value in [4] is listed as “significantly reduced”. In the series on SW403 xenograft (SW403 tumor samples, FIG. 4E), the “ERK phosphorylation (immunohistochemistry)” value was “significant decrease”, the “expression of mutant KRAS (immunohistochemistry)” value is given as “significant decrease” and the “ki-67 proliferation marker (immunohistochemistry)” value is “significant decrease”. For the same molecule, the “ERK phosphorylation in tumor samples” value in the series on SW403 xenograft (SW403 tumors, western blot and flow cytometry after 3-day, 1-week, 3-week treatment, FIGS. 13B-13D) was “time-dependent reduction”. For the same molecule, the survival entry in the series with SW403 xenograft (SW403 xenograft, oral, 300 mg/kg, FIG. 4D) is reported as “prolonged survival”. For the same molecule, in the series on SW403 xenograft (SW403 xenograft, oral, 300 mg/kg, FIGS. 4B-4D), the tumor growth rate entry was “significant reduction”. For the same molecule, the tolerability entry in the series with SW403 xenograft (mice bearing SW403 xenograft, oral, 300 mg/kg, FIG. 13A) was “well tolerated”. In addition, the “long-chain PUFA” value in [5] (ELOVL6i treated cells) is reported as “increases”. Moreover, in series [5] (shotgun lipidomic analysis, FIG. 5C), the “sphingolipids, including sphingomyelin (SM) and Hexosyl-Ceramide (HexCer)” value is recorded as “significant reduction”. In addition, the “levels of PtdSer” value in series [5] (shotgun lipidomic analysis, FIG. 5E) is listed as “significantly altered”. The “glycerolipid abundance, including diacylglycerol (DAG) and triacylglycerol (TAG)” value in series [5] (shotgun lipidomic analysis, FIGS. 5B and 18A) was “Notable increases”. Besides, in [5] (setting [7]), the levels of oleate result is given as “significant reduction” and the levels of stearate entry is “significant reduction”. Besides, the “cellular GTP-bound KRAS” value in series [6] is listed as “consistently reduced”.

(Values after patent US20260022380A1, “GENETIC MODULATORS OF KRAS PROTEIN EXPRESSION AND THEIR USES” (Northwestern University, priority 2024, published 2026).)
